This is an account of results in patent US9738655B2, “Tetrahydroisoquinolines containing substituted azoles as factor XIa inhibitors” (BRISTOL-MYERS SQUIBB COMPANY, priority 2013, dated 2017).

In assay [1] the target is purified human plasma kallikrein (Homo sapiens (Human), UniProt P03952). Description: Plasma kallikrein enzyme inhibition assay (chromogenic substrate S-2302). It is filed as biochemical.
Assay [2] addresses purified human Factor XIa (Homo sapiens (Human), UniProt P03951). In words: Factor XIa enzyme inhibition assay (chromogenic substrate S-2366).
Description: The effectiveness of compounds of the present invention as inhibitors of the coagulation Factors XIa, VIIa, IXa, Xa, XIIa, plasma kallikrein or thrombin, can be determined using a relevant purified serine protease, respectively, and an appropriate synthetic substrate. The rate of hydrolysis of the chromogenic or fluorogenic substrate by the relevant serine protease was measured both in the absence and presence of compounds of the present invention. […] A decrease in the rate of absorbance or fluorescence change in the presence of inhibitor is indicative of enzyme inhibition. […] The results of this assay are expressed as the inhibitory constant, Ki.
Values of Ki were determined by allowing the protease to react with the substrate in the presence of the inhibitor.
The mark [3] stands for this setting: measured at 25° C. (no asterisk).
Setting [4] is: read-out: Factor XIa Ki, measured at 25° C.
[5] abbreviates: measured at 25° C. (no asterisk), TFA salt.
Setting [6] is: read-out: Factor XIa Ki, measured at 25° C., TFA salt.

By Ki is commonly meant a dissociation constant, usually derived from enzyme kinetics or from competition with a known ligand.

Where a name gives a salt, the structure may show the parent alone. Read-outs that look alike come from different tables or passages of the source. Where only a bound is given, the exact number is not on record here.

purified human Factor XIa, sequence (P03951 388-625): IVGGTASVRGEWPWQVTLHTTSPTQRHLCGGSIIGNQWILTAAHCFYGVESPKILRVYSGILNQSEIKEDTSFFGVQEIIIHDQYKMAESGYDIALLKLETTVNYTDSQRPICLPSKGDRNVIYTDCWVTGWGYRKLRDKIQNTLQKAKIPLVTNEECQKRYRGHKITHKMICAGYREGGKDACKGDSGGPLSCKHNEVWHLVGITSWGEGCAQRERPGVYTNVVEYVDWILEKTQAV
purified human Factor XIa, sequence (P03951 19-387 partner): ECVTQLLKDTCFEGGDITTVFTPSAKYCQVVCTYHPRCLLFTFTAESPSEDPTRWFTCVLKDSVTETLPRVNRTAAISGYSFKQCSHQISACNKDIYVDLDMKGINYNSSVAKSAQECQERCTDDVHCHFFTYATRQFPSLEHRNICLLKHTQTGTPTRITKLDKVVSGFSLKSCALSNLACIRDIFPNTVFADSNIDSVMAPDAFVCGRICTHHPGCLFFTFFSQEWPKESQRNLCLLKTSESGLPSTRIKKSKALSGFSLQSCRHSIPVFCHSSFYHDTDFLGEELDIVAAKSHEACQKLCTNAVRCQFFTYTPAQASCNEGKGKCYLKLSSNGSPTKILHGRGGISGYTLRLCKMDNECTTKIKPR
purified human plasma kallikrein, sequence (P03952 391-638): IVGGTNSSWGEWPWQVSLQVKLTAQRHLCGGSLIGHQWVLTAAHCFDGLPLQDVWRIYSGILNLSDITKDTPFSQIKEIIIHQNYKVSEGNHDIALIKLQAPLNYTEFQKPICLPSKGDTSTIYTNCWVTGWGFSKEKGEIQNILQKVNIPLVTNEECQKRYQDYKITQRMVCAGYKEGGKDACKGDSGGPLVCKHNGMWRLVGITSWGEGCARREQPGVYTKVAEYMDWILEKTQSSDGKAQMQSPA
purified human plasma kallikrein, sequence (P03952 20-390 partner): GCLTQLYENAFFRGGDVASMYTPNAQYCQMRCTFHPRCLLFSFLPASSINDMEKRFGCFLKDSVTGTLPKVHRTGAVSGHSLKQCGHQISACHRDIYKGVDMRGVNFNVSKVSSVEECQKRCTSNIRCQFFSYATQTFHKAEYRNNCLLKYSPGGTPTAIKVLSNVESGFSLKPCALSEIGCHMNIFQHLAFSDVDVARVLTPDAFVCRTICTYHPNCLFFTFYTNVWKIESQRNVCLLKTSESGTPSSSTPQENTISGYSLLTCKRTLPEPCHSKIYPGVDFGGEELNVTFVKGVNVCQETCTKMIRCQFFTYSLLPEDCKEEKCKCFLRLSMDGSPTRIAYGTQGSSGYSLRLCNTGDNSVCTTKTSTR

Regarding `O=C(O)c1ccc(NC(=O)C2c3cccc(-c4ccc5cn[nH]c5c4)c3CCN2C(=O)c2cn(-c3cccc(Cl)c3F)nn2)cc1` (centres unmarked) [Example 161, 4-(2-(1-(3-chloro-2-fluorophenyl)-1H-1,2,3-triazole-4-carbonyl)-5-(1H-indazol-6-yl)-1,2,3,4-tetrahydroisoquinoline-1-carboxamido)benzoic acid], the values for the Ki in assay [1] (setting [3]) and in assay [2] (setting [4]) were 0.00246 µM and less than 0.005 µM, respectively. On the same counts, the results for `CN1CCN(c2cccc3c2CCN(C(=O)C2CC(c4c(F)ccc(Cl)c4F)=NO2)C3C(=O)Nc2ccc(C(=O)O)cc2)CC1` (centres unmarked) [Example 205, 4-(2-(3-(3-chloro-2,6-difluorophenyl)-4,5-dihydroisoxazole-5-carbonyl)-5-(4-methylpiperazin-1-yl)-1,2,3,4-tetrahydroisoquinoline-1-carboxamido)benzoic acid, 2 TFA salt] are 0.00064 µM and less than 0.005 µM. Regarding `O=C(O)c1ccc(NC(=O)C2c3cccc(N4CCN(CC(F)(F)F)CC4)c3CCN2C(=O)c2cn(-c3cccc(Cl)c3F)nn2)cc1` (centres unmarked) [Example 229, 4-(2-(1-(3-Chloro-2-fluorophenyl)-1H-1,2,3-triazole-4-carbonyl)-5-(4-(2,2,2-trifluoroethyl)piperazin-1-yl)-1,2,3,4-tetrahydroisoquinoline-1-carboxamido) benzoic acid, TFA salt], the Ki in assay [1] (measured at 37° C. (*)) is 0.124 µM; in assay [2] (setting [4]), less than 0.005 µM. Turning to `COC1CCN(c2cccc3c2CCN(C(=O)C2CC(=O)N(c4cccc(Cl)c4F)C2)C3C(=O)Nc2ccc(C(=O)O)cc2)CC1` (centres unmarked) [Example 260, 4-(2-(1-(3-chloro-2-fluorophenyl)-5-oxopyrrolidine-3-carbonyl)-5-(4-methoxypiperidin-1-yl)-1,2,3,4-tetrahydroisoquinoline-1-carboxamido)benzoic acid, TFA salt], the inhibition constant (Ki) in assay [1] (setting [5]) came out at 4.75 µM; in assay [2] (setting [6]), 2.46 µM. With `Cc1nc(-c2ccc(NC(=O)C3c4cccc(N5CCC(N(C)C)CC5)c4CCN3C(=O)c3cn(-c4cccc(Cl)c4F)nn3)cc2)no1` (centres unmarked) [Example 98, 2-(1-(3-Chloro-2-fluorophenyl)-1H-1,2,3-triazole-4-carbonyl)-5-(4-(dimethylamino)piperidin-1-yl)-N-(4-(5-methyl-1,2,4-oxadiazol-3-yl)phenyl)-1,2,3,4-tetrahydroisoquinoline-1-carboxamide, bis-TFA salt], the Ki in assay [1] (setting [3]) is 0.0052 µM; in assay [2] (setting [4]), 0.00669 µM.

As for “4-(2-(5-amino-1-(3-chloro- 2-fluorophenyl)-1H- pyrazole-4-carbonyl)-5-(4- (pyrrolidin-1- yl)piperidin-1-yl)-1,2,3,4- tetrahydroisoquinoline-1- carboxamido)benzoic acid, 3TFA salt [Example 213]”, the figures for the inhibition constant (Ki) in assay [1] (setting [3]) and in assay [2] (read-out: Factor XIa Ki) were 0.0122 µM and less than 0.005 µM, respectively.

With `COC1CCN(c2cccc3c2CCN(C(=O)C2(C)CC(c4cccc(Cl)c4F)=NO2)C3C(=O)Nc2ccc(C(=O)O)cc2)CC1` (centres unmarked) [Example 266, 4-(2-(3-(3-chloro-2-fluorophenyl)-5-methyl-4,5-dihydroisoxazole-5-carbonyl)-5-(4-methoxypiperidin-1-yl)-1,2,3,4-tetrahydroisoquinoline-1-carboxamido)benzoic acid, TFA salt], the Ki in assay [1] (setting [5]) stood at 0.687 µM; in assay [2] (setting [6]), 0.42 µM. On to `CN(C)C1CCN(c2cccc3c2CCN(C(=O)c2cn(-c4cccc(Cl)c4F)cn2)[C@@H]3C(=O)Nc2ccc(C(=O)O)cc2)CC1` (single isomer, unassigned) [Example 55, bis-TFA salt], for which the Ki in assay [1] (setting [3]) was 0.00092 µM; in assay [2] (setting [4]), less than 0.005 µM. Regarding `CN1CCN(c2cccc3c2CCN(C(=O)c2cn(-c4cccc(Cl)c4F)nn2)[C@H]3C(=O)Nc2ccc(C(=O)O)cc2)C(=O)C1` [Example 79, (R)-4-(2-(1-(3-chloro-2-fluorophenyl)-1H-1,2,3-triazole-4-carbonyl)-5-(4-methyl-2-oxopiperazin-1-yl)-1,2,3,4-tetrahydroisoquinoline-1-carboxamido)benzoic acid, TFA salt], the Ki amounted to 0.719 µM in assay [1] (setting [3]) and 0.114 µM in assay [2] (setting [4]). Taken in the same sequence, the figures for `CN(C)C(=O)C1CCN(c2cccc3c2CCN(C(=O)c2cn(-c4cccc(Cl)c4F)nn2)[C@H]3C(=O)Nc2ccc(C(=O)O)cc2)CC1` (single isomer, unassigned) [Example 57, TFA salt] were 0.276 µM and 0.0331 µM. As to `O=C(Nc1ccc(-c2ncc[nH]2)cc1)C1c2cccc(-c3cncnc3)c2CCN1C(=O)c1cn(-c2cccc(Cl)c2F)nn1` (centres unmarked) [Example 126, N-(4-(1H-imidazol-2-yl)phenyl)-2-(1-(3-chloro-2-fluorophenyl)-1H-1,2,3-triazole-4-carbonyl)-5-(pyrimidin-5-yl)-1,2,3,4-tetrahy-droisoquinoline-1-carboxamide, TFA salt], the Ki in assay [1] (measured at 37° C. (*)) was 0.094 µM; in assay [2] (setting [4]), less than 0.005 µM. Take `COC1CCN(c2cccc3c2CCN(C(=O)c2cc(-c4cccc(Cl)c4F)no2)C3C(=O)Nc2ccc(C(=O)O)cc2)CC1` (racemic) [Example 268, 4-(2-(3-(3-chloro-2-fluorophenyl)isoxazole-5-carbonyl)-5-(4-methoxypiperidin-1-yl)-1,2,3,4-tetrahydroisoquinoline-1-carboxamido)benzoic acid, TFA salt]: the results for the Ki in assay [1] (measured at 37° C. (*)) and in assay [2] were 0.178 µM and 1.43 µM, respectively. Regarding `O=C(O)c1ccc(NC(=O)C2c3ccccc3CCN2C(=O)c2cn(-c3cccc(Cl)c3F)nn2)cc1` (centres unmarked) [Example 1, 4-(2-(1-(3-Chloro-2-fluorophenyl)-1H-1,2,3-triazole-4-carbonyl)-1,2,3,4-tetrahydroisoquinoline-1-carboxamido)benzoic acid], the inhibition constant (Ki) is 0.0208 µM in assay [1] (setting [3]) and 0.0135 µM in assay [2] (setting [4]). In the case of `CNC(=O)c1ccc(-c2cccc3c2CCN(C(=O)c2cn(-c4cccc(Cl)c4F)nn2)[C@@H]3C(=O)Nc2ccc(C(=O)OC)cc2)cn1` [Example 27, (S)-Methyl 4-(2-(1-(3-chloro-2-fluorophenyl)-1H-1,2,3-triazole-4-carbonyl)-5-(6-(methylcarbamoyl)pyridin-3-yl)-1,2,3,4-tetrahydroisoquinoline-1-carboxamido)benzoate, TFA salt], the Ki was 0.0468 µM in assay [1] (measured at 37° C. (*)) and less than 0.005 µM in assay [2] (setting [4]).

For `COC1CCN(c2cccc3c2CCN(C(=O)c2cn(-c4cccc(Cl)c4F)nn2)[C@@H]3C(=O)Nc2ccc(C(=O)O)cc2)CC1` [Example 314, (S)-4-(2-(1-(3-chloro-2-fluorophenyl)-1H-1,2,3-triazole-4-carbonyl)-5-(4-methoxypiperidin-1-yl)-1,2,3,4-tetrahydroisoquinoline-1-carboxamido)benzoic acid, TFA salt], the results for the Ki in assay [1] (setting [3]) and in assay [2] (setting [4]) were 0.0103 µM and less than 0.005 µM, respectively. On to `CN1CCN(c2cccc3c2CCN(C(=O)C2CC(c4cccc(Cl)c4F)=NO2)C3C(=O)Nc2ccc(C(=O)O)cc2)CC1` (centres unmarked) [Example 202, 4-(2-(3-(3-chloro-2-fluorophenyl)-4,5-dihydroisoxazole-5-carbonyl)-5-(4-methylpiperazin-1-yl)-1,2,3,4-tetrahydroisoquinoline-1-carboxamido)benzoic acid, 2 TFA salt], for which the Ki in assay [1] (setting [3]) was determined as 0.00111 µM. For `O=C(O)c1ccc(NC(=O)[C@H]2c3cccc(-c4cncc(F)c4)c3CCN2C(=O)[C@H]2CC(c3cccc(Cl)c3F)=NO2)cc1` [Example 22, 4-((R)-2-((R)-3-(3-Chloro-2-fluorophenyl)-4,5-dihydroisoxazole-5-carbonyl)-5-(5-fluoropyridin-3-yl)-1,2,3,4-tetrahydroisoquinoline-1-carboxamido)benzoic acid, TFA salt], the Ki in assay [1] (measured at 37° C. (*)) is 0.869 µM.
